The assay has as its system Mycobacterium tuberculosis variant bovis. Kind of assay: Antimycobacterial activity against Mycobacterium bovis 8 by serial dilution method. Type of assay: functional.

≈ marks a conversion by molar mass, not a printed value.

A word on the MIC: it is the smallest concentration in the dilution series that meets the test's criterion for growth inhibition. A low value points to greater potency. `NNC(=O)c1ccncc1` [ISONIAZID] gave an MIC of 0.015 to 0.06 µg/mL (≈ 0.109 to 0.438 µM).
